Reference: patent US7659404B2, “Broad spectrum 2-(substituted-amino)-benzothiazole sulfonamide HIV protease inhibitors” (Tibotec Pharmaceuticals Ltd., priority 2001, dated 2010)

Legend:
wild type virus (IIIB) = assay: HIV-AVE-MT4-MTT cellular assay, wild type virus (IIIB); format: cell-based; conditions: MT4 cells, MTT; for EC50: Human immunodeficiency virus 1, IIIB, MT4, wild type virus (IIIB), read-out: HIV-AVE-MT4-MTT-IIIB-2-002 pEC50 (converted); for HIV-AVE-MT4-MTT-IIIB-2-002 pEC50: wild type virus (IIIB)
Procedure: (§1) HIV- or mock-infected MT4 cells were incubated for five days in the presence of various concentrations of the inhibitor. At the end of the incubation period, all HIV-infected cells have been killed by the replicating virus in the control cultures in the absence of any inhibitor. Cell viability is measured by measuring the concentration of MTT, a yellow, water soluble tetrazolium dye that is converted to a purple, water insoluble formazan in the mitochondria of living cells only. Upon solubilization of the resulting formazan crystals with isopropanol, the absorbance of the solution is monitored at 540 nm. The values correlate directly to the number of living cells remaining in the culture at the completion of the five day incubation. The inhibitory activity of the compound was monitored on the virus-infected cells and was expressed as EC50 and EC90. These values represent the amount of the compound required to protect 50% and 90%, respectively, of the cells from the cytopathogenic effect of the virus. The toxicity of the compound was measured on the mock-infected cells and was expressed as CC50, which represents the concentration of compound required to inhibit the growth of the cells by 50%. The selectivity index (SI) (ratio CC50/EC50) is an indication of the selectivity of the anti-HIV activity of the inhibitor.

virus strain S (R13080) = assay: microbe, parasite or virus in culture; format: cell-based, HIV; conditions: for EC50: Human immunodeficiency virus 1, MT4, read-out: HIV-AVE-MT4-MTT-R13080-2-002 pEC50, virus strain S (R13080), MT4 cells, MTT (converted); for HIV-AVE-MT4-MTT-R13080-2-002 pEC50: virus strain S (R13080), MT4 cells
Procedure: as §1, with “At the end of the incubation period, all HIV-infected cells have been killed by the replicating virus in the control cultures in the absence of any inhibitor.” left out
(§2) Because of the increasing emergence of drug resistant HIV strains, the present compounds were tested for their potency against clinically isolated HIV strains harboring several mutations.
(§3) As a measure of the broad spectrum activity of the present compounds, the fold resistance (FR) defined as FR=EC50(mutant strain)/EC50(HIV-1 strain LAI).

virus strain F (R13025) = assay: microbe, parasite or virus in culture; format: cell-based, HIV; conditions: for EC50: Human immunodeficiency virus 1, MT4, read-out: HIV-AVE-MT4-MTT-R13025-2-002 pEC50, virus strain F (R13025), MT4 cells, MTT (converted); for HIV-AVE-MT4-MTT-R13025-2-002 pEC50: virus strain F (R13025), MT4 cells
Procedure: as §1, with “At the end of the incubation period, all HIV-infected cells have been killed by the replicating virus in the control cultures in the absence of any inhibitor.” left out
as §2, §3

CC(C)CN(C[C@@H](O)[C@H](Cc1ccccc1)NC(=O)OC(C)(C)C)S(=O)(=O)c1ccc2nc(N(C)CCCN3CCCC3)sc2c1 [Compound 124]
EC50 (wild type virus (IIIB)): 2000 nM

CCOC(=O)Nc1nc2ccc(S(=O)(=O)N(CC(C)C)C[C@@H](O)[C@H](Cc3ccccc3)NC(=O)OCc3cncs3)cc2s1 [Compound 170]
EC50 (virus strain S (R13080)): 162 nM
EC50 (virus strain F (R13025)): 17.4 nM
EC50 (wild type virus (IIIB)): 7.59 nM

Cc1cccc(C)c1OCC(=O)N[C@@H](Cc1ccccc1)[C@H](O)CN(CC(C)C)S(=O)(=O)c1ccc2nc(NC(=O)c3ccccn3)sc2c1 [Compound 140]
HIV-AVE-MT4-MTT-R13025-2-002 pEC50 (virus strain F (R13025)): 8.12
HIV-AVE-MT4-MTT-IIIB-2-002 pEC50 (wild type virus (IIIB)): 8.34

CC(C)CN(C[C@@H](O)[C@H](Cc1ccccc1)NC(=O)OC(C)(C)C)S(=O)(=O)c1ccc2nc(N3CCC[C@@H]3C(=O)O)sc2c1 [Compound 142]
EC50 (wild type virus (IIIB)): 5620 nM

Cc1cccc(C)c1OCC(=O)N[C@@H](Cc1ccccc1)[C@H](O)CN(CC(C)C)S(=O)(=O)c1ccc2nc(NC(=O)c3cccc(O)c3C)sc2c1 [Compound 117]
EC50 (virus strain S (R13080)): 191 nM
EC50 (virus strain F (R13025)): 35.5 nM
EC50 (wild type virus (IIIB)): 47.9 nM

CC(C)CN(C[C@@H](O)[C@H](Cc1ccccc1)NC(=O)OCc1cncs1)S(=O)(=O)c1ccc2nc(N(C)C(=O)CN(C)CCCN3CCCC3)sc2c1 [Compound 175]
HIV-AVE-MT4-MTT-R13080-2-002 pEC50 (virus strain S (R13080)): 5.5
HIV-AVE-MT4-MTT-R13025-2-002 pEC50 (virus strain F (R13025)): 6.03
HIV-AVE-MT4-MTT-IIIB-2-002 pEC50 (wild type virus (IIIB)): 7.3

CC(C)CN(C[C@@H](O)[C@H](Cc1ccccc1)NC(=O)OCc1cncs1)S(=O)(=O)c1ccc2nc(NC(=O)CN3CCNCC3)sc2c1 [Compound 157]
HIV-AVE-MT4-MTT-R13080-2-002 pEC50 (virus strain S (R13080)): 6.85
HIV-AVE-MT4-MTT-R13025-2-002 pEC50 (virus strain F (R13025)): 7.5
HIV-AVE-MT4-MTT-IIIB-2-002 pEC50 (wild type virus (IIIB)): 7.54

CC(C)CN(C[C@@H](O)[C@H](Cc1ccccc1)NC(=O)OCc1cncs1)S(=O)(=O)c1ccc2nc(NC(=O)c3cccnc3)sc2c1 [Compound 163]
EC50 (virus strain S (R13080)): 214 nM
EC50 (virus strain F (R13025)): 49 nM
EC50 (wild type virus (IIIB)): 11.5 nM

CC(C)CN(C[C@@H](O)[C@H](Cc1ccccc1)NC(=O)OCc1cncs1)S(=O)(=O)c1ccc2nc(NC(=O)c3ccno3)sc2c1 [Compound 172]
EC50 (virus strain S (R13080)): 813 nM
EC50 (virus strain F (R13025)): 245 nM
EC50 (wild type virus (IIIB)): 42.7 nM

CC(C)CN(C[C@@H](O)[C@H](Cc1ccccc1)NC(=O)OCc1cncs1)S(=O)(=O)c1ccc2nc(NC(=O)C3CCC(=O)N3)sc2c1 (stereo partly drawn) [Compound 161]
EC50 (virus strain S (R13080)): 33.9 nM
EC50 (virus strain F (R13025)): 17.4 nM
EC50 (wild type virus (IIIB)): 9.12 nM

CC(C)CN(C[C@@H](O)[C@H](Cc1ccccc1)NC(=O)C(NC(=O)CNCc1cccc(F)c1)C(C)(C)C)S(=O)(=O)c1ccc2nc(NCCCN(C)C)sc2c1 (stereo partly drawn) [Compound 188]
EC50 (virus strain S (R13080)): 132 nM
EC50 (virus strain F (R13025)): 93.3 nM
EC50 (wild type virus (IIIB)): 200 nM

CC(=O)Nc1nc2ccc(S(=O)(=O)N(CC(C)C)C[C@@H](O)[C@H](Cc3ccccc3)NC(=O)COc3c(C)cc([N+](=O)[O-])cc3C)cc2s1 [Compound 104]
EC50 (wild type virus (IIIB)): 66.1 nM

Cc1cccc(C)c1OCC(=O)N[C@@H](Cc1ccccc1)[C@H](O)CN(CC(C)C)S(=O)(=O)c1ccc2nc(NC(=O)c3ccccn3)sc2c1 [Compound 112]
EC50 (virus strain S (R13080)): 151 nM
HIV-AVE-MT4-MTT-R13025-2-002 pEC50 (virus strain F (R13025)): 6.91
HIV-AVE-MT4-MTT-IIIB-2-002 pEC50 (wild type virus (IIIB)): 8

CC(C)CN(C[C@@H](O)[C@H](Cc1ccccc1)NC(=O)O[C@H]1CO[C@H]2OCC[C@H]21)S(=O)(=O)c1ccc2nc(N(C)CCCN(C)C)sc2c1 [Compound 141]
HIV-AVE-MT4-MTT-R13080-2-002 pEC50 (virus strain S (R13080)): 6.02
HIV-AVE-MT4-MTT-R13025-2-002 pEC50 (virus strain F (R13025)): 6.49
HIV-AVE-MT4-MTT-IIIB-2-002 pEC50 (wild type virus (IIIB)): 7.83

Cc1cccc(C)c1OCC(=O)N[C@@H](Cc1ccccc1)[C@H](O)CN(CC(C)C)S(=O)(=O)c1ccc2nc(NC(=O)c3ccncc3)sc2c1 [Compound 125]
EC50 (virus strain S (R13080)): 145 nM
EC50 (virus strain F (R13025)): 26.9 nM
EC50 (wild type virus (IIIB)): 6.31 nM

CC(C)CN(C[C@@H](C)[C@H](Cc1ccccc1)NC(=O)OCc1cncs1)S(=O)(=O)c1ccc2nc(N(C)C(=O)c3ccncc3)sc2c1 [Compound 182]
EC50 (virus strain S (R13080)): 170 nM
EC50 (virus strain F (R13025)): 36.3 nM
EC50 (wild type virus (IIIB)): 4.79 nM

CC(C)CN(C[C@@H](O)[C@H](Cc1ccccc1)NC(=O)O[C@H]1CO[C@H]2OCC[C@H]21)S(=O)(=O)c1ccc2nc(N(C)CCN3CCCC3)sc2c1 [Compound 110]
EC50 (virus strain S (R13080)): 1550 nM
EC50 (virus strain F (R13025)): 676 nM
EC50 (wild type virus (IIIB)): 8.13 nM

COC(=O)CCNc1nc2ccc(S(=O)(=O)N(CC(C)C)C[C@@H](O)[C@H](Cc3ccccc3)NC(=O)COc3c(C)cccc3C)cc2s1 [Compound 135]
EC50 (wild type virus (IIIB)): 66.1 nM

CC(C)CN(C[C@@H](O)[C@H](Cc1ccccc1)NC(=O)OC(C)(C)C)S(=O)(=O)c1ccc2nc(N(C)CCN3CCCC3)sc2c1 [Compound 123]
EC50 (wild type virus (IIIB)): 1580 nM

Cc1cccc(C)c1OCC(=O)N[C@@H](Cc1ccccc1)[C@H](O)CN(CC(C)C)S(=O)(=O)c1ccc2nc(NCC3CCCO3)sc2c1 (stereo partly drawn) [Compound 134]
EC50 (wild type virus (IIIB)): 61.7 nM

Cc1cccc(C)c1OCC(=O)N[C@@H](Cc1ccccc1)[C@H](O)CN(CC(C)C)S(=O)(=O)c1ccc2nc(N(C)CCN3CCOCC3)sc2c1 [Compound 137]
EC50 (wild type virus (IIIB)): 1700 nM

CC(C)CN(C[C@@H](O)[C@H](Cc1ccccc1)NC(=O)O[C@@H]1COC2OCCNC21)S(=O)(=O)c1ccc2nc(NCCN3CCCC3)sc2c1 (stereo partly drawn) [Compound 101]
EC50 (wild type virus (IIIB)): 240 nM

CC(C)CN(C[C@@H](O)[C@H](Cc1ccccc1)NC(=O)OC(C)(C)C)S(=O)(=O)c1ccc2nc(NCc3ccccn3)sc2c1 [Compound 119]
HIV-AVE-MT4-MTT-IIIB-2-002 pEC50 (wild type virus (IIIB)): 6.48

CC(C)CN(C[C@@H](O)[C@H](Cc1ccccc1)NC(=O)OC(C)(C)C)S(=O)(=O)c1ccc2nc(N3CCOCC3)sc2c1 [Compound 122]
EC50 (wild type virus (IIIB)): 1200 nM

Cc1cccc(C)c1OCC(=O)N[C@@H](Cc1ccccc1)[C@H](O)CN(CC(C)C)S(=O)(=O)c1ccc2nc(NCc3cccnc3)sc2c1 [Compound 130]
EC50 (wild type virus (IIIB)): 58.9 nM

Cc1cccc(C)c1OCC(=O)N[C@@H](Cc1ccccc1)[C@H](O)CN(CC(C)C)S(=O)(=O)c1ccc2nc(N(C)CCCN3CCCC3)sc2c1 [Compound 138]
EC50 (wild type virus (IIIB)): 1450 nM

Cc1cccc(C)c1OCC(=O)N[C@@H](Cc1ccccc1)[C@H](O)CN(CC(C)C)S(=O)(=O)c1ccc2nc(NCCc3ccccn3)sc2c1 [Compound 132]
EC50 (wild type virus (IIIB)): 64.6 nM

Cc1cccc(C)c1OCC(=O)N[C@@H](Cc1ccccc1)[C@H](O)CN(CC(C)C)S(=O)(=O)c1ccc2nc(NCc3ccccn3)sc2c1 [Compound 129]
EC50 (wild type virus (IIIB)): 63.1 nM

Cc1cccc(C)c1OCC(=O)N[C@@H](Cc1ccccc1)[C@@H](CN(CC(C)C)S(=O)(=O)c1ccc2nc(NC(=O)c3ccccc3)sc2c1)OC(=O)c1ccncc1 [Compound 147]
EC50 (wild type virus (IIIB)): 339 nM

Cc1cccc(C)c1OCC(=O)N[C@@H](Cc1ccccc1)[C@H](O)CN(CC(C)C)S(=O)(=O)c1ccc2nc(N(C)CCCN(C)C)sc2c1 [Compound 109]
EC50 (virus strain F (R13025)): 4170 nM
EC50 (wild type virus (IIIB)): 2090 nM

CC(C)CN(C[C@@H](O)[C@H](Cc1ccccc1)NC(=O)[C@@H](NC(=O)CNCc1cccc(F)c1)C(C)(C)C)S(=O)(=O)c1ccc2nc(NCCN3CCCC3)sc2c1.O=C(O)C(F)(F)F.O=C(O)C(F)(F)F [Compound 85, N′-[(3-fluorophenyl)methyl]glycyl-N-[(1S,2R)-2-hydroxy-3-[(2-methylpropyl)[[2-[2-(pyrrolidin-1-yl)ethylamino]benzothiazol-6-yl]sulfonyl]amino]-1-(phenylmethyl)propyl]-3-methyl-L-Valinamide, bis-trifluoroacetate]
HIV-AVE-MT4-MTT-IIIB-2-002 pEC50 (wild type virus (IIIB)): 7.24

CC(C)CN(C[C@@H](O)[C@H](Cc1ccccc1)NC(=O)OC(C)(C)C)S(=O)(=O)c1ccc2nc(NCc3ccccn3)sc2c1 [Compound 118]
EC50 (wild type virus (IIIB)): 302 nM

CC(C)CN(C[C@@H](O)[C@H](Cc1ccccc1)NC(=O)OCc1cncs1)S(=O)(=O)c1ccc2nc(NCCN(C)C(=O)OC(C)(C)C)sc2c1 [Compound 149]
EC50 (wild type virus (IIIB)): 51.3 nM

Cc1cccc(C)c1OCC(=O)N[C@@H](Cc1ccccc1)[C@H](O)CN(CC(C)C)S(=O)(=O)c1ccc2nc(N3CCOCC3)sc2c1 [Compound 136]
EC50 (wild type virus (IIIB)): 724 nM

CC(C)CN(C[C@@H](O)[C@H](Cc1ccccc1)NC(=O)OC(C)(C)C)S(=O)(=O)c1ccc2nc(NCCc3ccccn3)sc2c1 [Compound 120]
EC50 (wild type virus (IIIB)): 316 nM
